In patent US12252524B2, “GIP/GLP1 co-agonist compounds” (Eli Lilly and Company, priority 2018, dated 2025) one finds Ki and EC50 data, which are given here for four compounds.

SMILES strings stand for the structures. Numbered stars: 1 amine (or outer) side, 2 acyl side, 3 side chain; on linkers, the order of the positions; unused ones are H or OH. Square brackets hold non-standard residues; d marks the D form. Side chains are listed from the residue outwards. Peptide text beside a SMILES is read from it. * marks the point of attachment. C20 diacid = O=C(O)CCCCCCCCCCCCCCCCCCC(=O)*; C18 diacid = O=C(O)CCCCCCCCCCCCCCCCC(=O)*; αMePhe(2-F) = C[C@](N)(Cc1ccccc1F)C(=O)O; C16 diacid = O=C(O)CCCCCCCCCCCCCCC(=O)*; γGlu = O=C(O)[C@H](CCC(=O)[*:2])N[*:1]; 4Pal = N[C@@H](Cc1ccncc1)C(=O)O; αMeL = CC(C)C[C@](C)(N)C(=O)O; AEEA = NCCOCCOCC(=O)O; Aib = CC(C)(N)C(=O)O

The target of one test is T1, human GIP receptor (Homo sapiens, UniProt P48546).
T1 construct: expressed in transfected cells; crude membranes
T1 sequence (P48546 22-466): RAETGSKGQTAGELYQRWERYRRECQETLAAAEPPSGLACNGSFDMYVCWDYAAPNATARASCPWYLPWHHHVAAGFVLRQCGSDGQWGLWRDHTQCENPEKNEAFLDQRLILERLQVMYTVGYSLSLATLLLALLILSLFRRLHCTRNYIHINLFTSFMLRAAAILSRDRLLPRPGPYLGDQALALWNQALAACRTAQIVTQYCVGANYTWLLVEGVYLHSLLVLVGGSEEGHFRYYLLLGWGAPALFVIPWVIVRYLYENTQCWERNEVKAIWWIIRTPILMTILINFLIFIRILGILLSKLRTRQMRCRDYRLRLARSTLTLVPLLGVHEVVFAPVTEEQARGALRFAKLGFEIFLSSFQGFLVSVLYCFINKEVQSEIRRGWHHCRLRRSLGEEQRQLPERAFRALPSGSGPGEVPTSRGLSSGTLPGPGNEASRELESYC
The experiment in a line: [125I]-GIP binding (SPA), human GIP receptor. The note with it: read-out: hGIPR Ki, nM (SEM, n).

In test [1] the target is T2, gastric inhibitory peptide receptor (GIPR) (Homo sapiens, UniProt P48546).
T2 sequence (P48546 22-466): T1 sequence (P48546 22-466)
The experiment in a line: cAMP pharmacological functional assay in presence of casein, hGIPR. The format is cell-based. The note with it: HEK293 cells expressing hGIPR, 0.1% Casein, geometric mean; read-out: hGIPR cAMP Rel EC50 nM (SEM, n).

A further test deals with T3, human Gcg receptor (Homo sapiens, UniProt P47871).
T3 construct: expressed in transfected cells; crude membranes
The experiment in a line: [125I]-Glucagon binding (SPA), human Gcg receptor. The settings on record: read-out: hGLcgR Ki, nM (SEM, n). A digest of the protocol: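 Scintillation counts are taken after membranes and WGA beads incubate and settle for 12 hours at room temperature. Buffer is 25 mM HEPES, pH 7.4, with CaCl2, MgCl2, bacitracin and Tween-20. Ki values, from four-parameter IC50 fits, are geometric means over independent days.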

The target in test [2] is human GLP-1 receptor (GLP-1R) (Homo sapiens, UniProt P43220). The experiment in a line: cAMP pharmacological functional assay in presence of casein, hGLP-1R. Type of test: cell-based. The settings on record: HEK293 cells expressing hGLP-1R, 0.1% Casein, geometric mean; read-out: hGLP1R cAMP Rel EC50 nM (SEM, n).
The target of the next test is human GLP-1R (Homo sapiens, UniProt P43220). Briefly: [125I]-GLP-1 binding (SPA), human GLP-1 receptor. The settings on record: read-out: hGLP1R Ki, (nM) (SEM, n). Also on record: expressed in transfected cells; crude membranes. A digest of the protocol:
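Crude-membrane binding assay; one membrane prep included 1 mM MgCl2 and 25 units/ml DNAse I during lysis. Assay buffer at pH 7.4 contains 0.1% (w/v) bacitracin and 0.003% (w/v) TWEEN-20. Ki is reported as geometric mean.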

Chain of human GLP-1R (P43220 24-463): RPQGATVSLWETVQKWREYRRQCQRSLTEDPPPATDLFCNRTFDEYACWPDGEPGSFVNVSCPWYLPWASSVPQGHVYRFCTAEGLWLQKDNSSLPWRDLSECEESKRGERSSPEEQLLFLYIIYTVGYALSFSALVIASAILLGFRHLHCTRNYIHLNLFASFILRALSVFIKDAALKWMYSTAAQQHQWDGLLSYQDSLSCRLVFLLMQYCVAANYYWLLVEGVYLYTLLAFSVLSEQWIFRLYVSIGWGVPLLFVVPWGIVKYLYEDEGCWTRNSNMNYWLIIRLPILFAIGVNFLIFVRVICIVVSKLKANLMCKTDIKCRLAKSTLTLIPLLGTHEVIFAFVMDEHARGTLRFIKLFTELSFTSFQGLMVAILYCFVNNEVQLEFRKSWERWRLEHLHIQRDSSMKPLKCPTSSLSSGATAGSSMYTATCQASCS
Chain of human GLP-1 receptor (GLP-1R) (P43220 24-463): as above
T3 sequence (P47871 26-477): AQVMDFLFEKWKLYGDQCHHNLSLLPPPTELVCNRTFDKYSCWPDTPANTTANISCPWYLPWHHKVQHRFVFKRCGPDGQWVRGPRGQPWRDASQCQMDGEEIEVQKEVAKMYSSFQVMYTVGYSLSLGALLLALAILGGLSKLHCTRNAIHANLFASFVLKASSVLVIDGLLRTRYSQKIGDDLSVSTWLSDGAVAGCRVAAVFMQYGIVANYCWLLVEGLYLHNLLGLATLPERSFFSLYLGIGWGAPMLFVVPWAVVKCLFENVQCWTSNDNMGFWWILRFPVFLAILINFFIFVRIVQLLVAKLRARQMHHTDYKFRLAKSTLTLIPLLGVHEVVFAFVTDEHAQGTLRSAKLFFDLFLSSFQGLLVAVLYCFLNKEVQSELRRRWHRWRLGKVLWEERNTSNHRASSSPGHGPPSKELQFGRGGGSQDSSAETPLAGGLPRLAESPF

`CC[C@H](C)[C@H](NC(=O)[C@H](CC(C)C)NC(=O)[C@H](Cc1ccc(O)cc1)NC(=O)[C@@H](CCC(=O)O)NC(=O)[C@@H](NC(=O)[C@H](Cc1ccccc1)NC(=O)[C@H](CCC(=O)O)NC(=O)C(C)(C)NC(=O)[C@H](CCC(N)=O)NC(=O)[C@H](C)NC(=O)[C@H](CCCCNC(=O)COCCOCCNC(=O)COCCOCCNC(=O)CC[C@H](NC(=O)CCCCCCCCCCCCCCCCCCC(=O)O)C(=O)O)NC(=O)[C@H](CCCCN)NC(=O)[C@H](CC(=O)O)NC(=O)[C@H](CC(C)C)NC(=O)[C@](C)(CC(C)C)NC(=O)[C@@H](NC(=O)[C@H](CO)NC(=O)[C@H](Cc1ccncc1)NC(=O)[C@H](CC(=O)O)NC(=O)[C@H](CO)NC(=O)[C@@H](NC(=O)[C@](C)(Cc1ccccc1F)NC(=O)[C@@H](NC(=O)CNC(=O)[C@H](CCC(=O)O)NC(=O)C(C)(C)NC(=O)[C@@H](N)Cc1ccc(O)cc1)[C@@H](C)O)[C@@H](C)O)[C@@H](C)CC)[C@@H](C)CC)C(=O)N[C@@H](CCC(=O)O)C(=O)NCC(=O)NCC(=O)N1CCC[C@H]1C(=O)N[C@@H](CO)C(=O)N[C@@H](CO)C(=O)NCC(=O)N[C@@H](C)C(=O)N1CCC[C@H]1C(=O)N1CCC[C@H]1C(=O)N1CCC[C@H]1C(=O)N[C@@H](CO)C(N)=O` [Example 203] (H-Y[Aib]EGT[αMePhe(2-F)]TSD[4Pal]SI[αMeL]LDKK([AEEA-AEEA-γGlu-C20 diacid])AQ[Aib]EFI[dE]YLIEGGPSSGAPPPS-NH2; N-terminus assumed): the figures for the Ki at human GIP receptor, at human Gcg receptor and at human GLP-1R were 0.0337 nM, 845 nM and 3.9 nM, respectively. For the same compound, the results for the EC50 in test [1] and in test [2] were 0.0387 nM and 0.0679 nM, respectively.

`CC[C@H](C)[C@H](NC(=O)[C@H](CC(C)C)NC(=O)[C@H](Cc1ccc(O)cc1)NC(=O)[C@@H](CCC(=O)O)NC(=O)[C@@H](NC(=O)[C@H](Cc1ccccc1)NC(=O)[C@H](CCC(=O)O)NC(=O)C(C)(C)NC(=O)[C@H](CCC(N)=O)NC(=O)[C@H](C)NC(=O)[C@H](CCCCNC(=O)COCCOCCNC(=O)COCCOCCNC(=O)CCCCCCCCCCCCCCCCC(=O)O)NC(=O)[C@H](CCC(=O)O)NC(=O)[C@H](CC(=O)O)NC(=O)[C@H](CC(C)C)NC(=O)[C@](C)(CC(C)C)NC(=O)[C@@H](NC(=O)[C@H](CO)NC(=O)[C@H](Cc1ccncc1)NC(=O)[C@H](CC(=O)O)NC(=O)[C@H](CO)NC(=O)[C@@H](NC(=O)[C@](C)(Cc1ccccc1F)NC(=O)[C@@H](NC(=O)CNC(=O)[C@H](CCC(=O)O)NC(=O)C(C)(C)NC(=O)[C@@H](N)Cc1ccc(O)cc1)[C@@H](C)O)[C@@H](C)O)[C@@H](C)CC)[C@@H](C)CC)C(=O)N[C@@H](CCC(=O)O)C(=O)NCC(=O)NCC(=O)N1CCC[C@H]1C(=O)N[C@@H](CO)C(=O)N[C@@H](CO)C(=O)NCC(=O)N[C@@H](C)C(=O)N1CCC[C@H]1C(=O)N1CCC[C@H]1C(=O)N1CCC[C@H]1C(=O)N[C@@H](CO)C(N)=O` [Example 205] (H-Y[Aib]EGT[αMePhe(2-F)]TSD[4Pal]SI[αMeL]LDEK([AEEA-AEEA-C18 diacid])AQ[Aib]EFI[dE]YLIEGGPSSGAPPPS-NH2; N-terminus assumed): the values for the Ki at human GIP receptor, at human Gcg receptor and at human GLP-1R were 0.0367 nM, 438 nM and 3.05 nM, respectively. Besides, the EC50 stood at 0.0281 nM in test [1] and 0.0261 nM in test [2].

Turning to `CC[C@H](C)[C@H](NC(=O)[C@H](CC(C)C)NC(=O)[C@H](Cc1ccc(O)cc1)NC(=O)[C@@H](CCC(=O)O)NC(=O)[C@@H](NC(=O)[C@H](Cc1ccccc1)NC(=O)[C@H](CCC(=O)O)NC(=O)C(C)(C)NC(=O)[C@H](CCC(N)=O)NC(=O)[C@H](C)NC(=O)[C@H](CCCCNC(=O)COCCOCCNC(=O)COCCOCCNC(=O)CCCCCCCCCCCCCCCCCCC(=O)O)NC(=O)[C@H](CCC(=O)O)NC(=O)[C@H](CC(=O)O)NC(=O)[C@H](CC(C)C)NC(=O)[C@](C)(CC(C)C)NC(=O)[C@@H](NC(=O)[C@H](CO)NC(=O)[C@H](Cc1ccncc1)NC(=O)[C@H](CC(=O)O)NC(=O)[C@H](CO)NC(=O)[C@@H](NC(=O)[C@](C)(Cc1ccccc1F)NC(=O)[C@@H](NC(=O)CNC(=O)[C@H](CCC(=O)O)NC(=O)C(C)(C)NC(=O)[C@@H](N)Cc1ccc(O)cc1)[C@@H](C)O)[C@@H](C)O)[C@@H](C)CC)[C@@H](C)CC)C(=O)N[C@@H](CCC(=O)O)C(=O)NCC(=O)NCC(=O)N1CCC[C@H]1C(=O)N[C@@H](CO)C(=O)N[C@@H](CO)C(=O)NCC(=O)N[C@@H](C)C(=O)N1CCC[C@H]1C(=O)N1CCC[C@H]1C(=O)N1CCC[C@H]1C(=O)N[C@@H](CO)C(N)=O` [Example 206] (H-Y[Aib]EGT[αMePhe(2-F)]TSD[4Pal]SI[αMeL]LDEK([AEEA-AEEA-C20 diacid])AQ[Aib]EFI[dE]YLIEGGPSSGAPPPS-NH2; N-terminus assumed), the Ki on human GIP receptor turned out to be 0.0814 nM; on human Gcg receptor, 176 nM; at human GLP-1R, 5.27 nM. The EC50 in test [1] turned out to be 0.0409 nM; in test [2], 0.027 nM.

Regarding `CC[C@H](C)[C@H](NC(=O)[C@H](CC(C)C)NC(=O)[C@H](Cc1ccc(O)cc1)NC(=O)[C@@H](CCC(=O)O)NC(=O)[C@@H](NC(=O)[C@H](Cc1ccccc1)NC(=O)[C@H](CCC(=O)O)NC(=O)C(C)(C)NC(=O)[C@H](CCC(N)=O)NC(=O)[C@H](C)NC(=O)[C@H](CCCCNC(=O)COCCOCCNC(=O)COCCOCCNC(=O)CC[C@H](NC(=O)CCCCCCCCCCCCCCC(=O)O)C(=O)O)NC(=O)[C@H](CCC(=O)O)NC(=O)[C@H](CC(=O)O)NC(=O)[C@H](CC(C)C)NC(=O)[C@](C)(CC(C)C)NC(=O)[C@@H](NC(=O)[C@H](CO)NC(=O)[C@H](Cc1ccc(O)cc1)NC(=O)[C@H](CC(=O)O)NC(=O)[C@H](CO)NC(=O)[C@@H](NC(=O)[C@](C)(Cc1ccccc1F)NC(=O)[C@@H](NC(=O)CNC(=O)[C@H](CCC(=O)O)NC(=O)C(C)(C)NC(=O)[C@@H](N)Cc1ccc(O)cc1)[C@@H](C)O)[C@@H](C)O)[C@@H](C)CC)[C@@H](C)CC)C(=O)N[C@@H](CCC(=O)O)C(=O)NCC(=O)NCC(=O)N1CCC[C@H]1C(=O)N[C@@H](CO)C(=O)N[C@@H](CO)C(=O)NCC(=O)N[C@@H](C)C(=O)N1CCC[C@H]1C(=O)N1CCC[C@H]1C(=O)N1CCC[C@H]1C(=O)N[C@@H](CO)C(N)=O` [Example 208] (H-Y[Aib]EGT[αMePhe(2-F)]TSDYSI[αMeL]LDEK([AEEA-AEEA-γGlu-C16 diacid])AQ[Aib]EFI[dE]YLIEGGPSSGAPPPS-NH2), the results for the Ki at human GIP receptor, at human Gcg receptor and on human GLP-1R were 0.0537 nM, greater than 1060 nM and 2.13 nM, respectively. Also, the EC50 in test [1] amounted to 0.0371 nM; in test [2], 0.0753 nM.

What is called Ki is the equilibrium dissociation constant of an inhibitor or competing ligand from its target. A word on the EC50: it is the concentration giving half of the maximal effect.
